Measurements taken from EPA's ToxRefDB 2.

How the values were obtained:
rat [1] = conditions: Multigenerational reproductive toxicity study, sprague dawley, Oral, Feed, dose end: 2 generation
mouse [2] = conditions: Combined chronic toxicity/carcinogenicity; cd1; Oral; Feed; dose end: 104 week; group: systemic; systemic / in life observation / body weight / body weight gain + systemic / in life observation / clinical signs / lacrimation + systemic…
rabbit [3] = conditions: Prenatal developmental toxicity study, new zealand white, Oral, Gavage/Intubation, dose end: 19 GD
mouse [4] = conditions: Prenatal developmental toxicity study, other, Oral, Gavage/Intubation, dose end: 15 GD
rat [5] = conditions: Combined chronic toxicity/carcinogenicity, sprague dawley, Oral, Feed, dose end: 104 week, group: systemic
rat [6] = conditions: Prenatal developmental toxicity study, other, Oral, Gavage/Intubation, dose end: 16 GD
dog [7] = conditions: Chronic toxicity, beagle, Oral, Feed, dose end: 52 week, group: systemic
rat [8] = conditions: Prenatal developmental toxicity study, sprague dawley, Oral, Gavage/Intubation, dose end: 16 GD
rabbit [9] = conditions: Prenatal developmental toxicity study, new zealand white, Oral, Gavage/Intubation, dose end: 19 GD; remark: listed apart in the source
rat [10] = conditions: Prenatal developmental toxicity study, sprague dawley, Oral, Feed, dose end: 16 GD
dog [11] = conditions: Subchronic oral toxicity in nonrodent, beagle, Feed, dose end: 90 day, group: systemic
rat [12] = conditions: Subchronic oral toxicity in rodents, sprague dawley, Feed, dose end: 90 day, group: systemic
rat [13] = conditions: Combined chronic toxicity/carcinogenicity, sprague dawley, Oral, Feed, dose end: 2 year, group: systemic
rat [14] = conditions: Prenatal developmental toxicity study, sprague dawley, Oral, Gavage/Intubation, dose end: 16 GD; remark: listed apart in the source
rat [15] = conditions: Multigenerational reproductive toxicity study, other, Oral, Feed, dose end: 2 generation
[16] = group: offspring, systemic / in life observation / body weight / offspring (pup) weight gain + developmental / offspring survival late / [other] / [other]
[17] = group: offspring, systemic / in life observation / body weight / offspring (pup) weight gain + developmental / offspring survival late / [other] / [other] + …
[18] = group: parental, systemic / pathology microscopic / eye / cataract + systemic / in life observation / body weight / body weight gain + systemic / in life …
[19] = group: parental, systemic / pathology microscopic / eye / cataract + systemic / in life observation / clinical signs / tongue ulcers
[20] = group: developmental, developmental / developmental malformation / bone / incomplete ossification
[21] = group: developmental, developmental / developmental malformation / bone / incomplete ossification + developmental / developmental malformation / bone / full …
[22] = group: maternal, systemic / in life observation / body weight / body weight gain + systemic / in life observation / food consumption / food consumption
[23] = group: maternal, systemic / in life observation / body weight / body weight gain + systemic / in life observation / food consumption / food consumption + …
[24] = group: developmental, developmental / developmental malformation / bone / [other] + developmental / developmental malformation / eye / open eye + developmental / …
[25] = group: developmental, developmental / developmental malformation / bone / [other] + developmental / developmental malformation / heart / defect a-v septum + …
[26] = group: maternal, systemic / in life observation / clinical signs / abnormal posture + systemic / in life observation / clinical signs / drooping eyelids (…
[27] = group: maternal, systemic / in life observation / clinical signs / piloerection + systemic / in life observation / clinical signs / respiration (rales) + …
[28] = systemic / pathology microscopic / eye / opacity
[29] = group: developmental, developmental / developmental malformation / bone / incomplete ossification + developmental / developmental malformation / bone / manus …
[30] = group: maternal, systemic / in life observation / food consumption / food consumption
[31] = systemic / pathology microscopic / eye / opacity + systemic / organ weight / kidney / absolute + systemic / organ weight / kidney / relative…
[32] = group: developmental, developmental / developmental malformation / kidney / small renal papilla + developmental / developmental malformation / ureter / distended
[33] = group: developmental, developmental / developmental malformation / kidney / small renal papilla + developmental / developmental malformation / ureter / distended…
[34] = group: developmental, systemic / in life observation / body weight / fetal weight
[35] = group: maternal, reproductive / reproductive performance / aborted / aborted + reproductive / reproductive performance / resorptions / resorptions + systemic…
[36] = group: developmental, developmental / developmental malformation / bone / extra ossification site + developmental / developmental malformation / bone / incomplete…
[37] = group: maternal, reproductive / reproductive performance / resorptions / resorptions + systemic / in life observation / food consumption / food consumption…
[38] = systemic / pathology microscopic / stomach / hyperplasia
[39] = systemic / organ weight / liver / relative to body weight + systemic / pathology microscopic / liver / hypertrophy
[40] = systemic / organ weight / liver / relative to body weight + systemic / pathology microscopic / liver / hypertrophy + systemic / clinical …
[41] = group: developmental, developmental / developmental malformation / kidney / absent renal papilla + developmental / developmental malformation / ureter / …
[42] = group: maternal, systemic / organ weight / liver / relative to body weight
[43] = group: maternal, systemic / organ weight / liver / relative to body weight + systemic / in life observation / body weight / body weight gain + systemic / in …
[44] = group: offspring, developmental / offspring survival late / viability index / viability index
[45] = group: offspring, developmental / offspring survival late / viability index / viability index + systemic / in life observation / body weight / offspring (pup…
[46] = group: parental, systemic / pathology microscopic / liver / hypertrophy + systemic / in life observation / body weight / body weight + systemic / pathology …
[47] = group: parental, systemic / pathology microscopic / liver / hypertrophy + systemic / in life observation / mortality / mortality
[48] = group: reproductive, reproductive / reproductive performance / gestational length / gestational length
[49] = group: reproductive, reproductive / reproductive performance / gestational length / gestational length + reproductive / offspring survival early / litter size / …

`[Br-].[Br-].c1cc[n+]2c(c1)-c1cccc[n+]1CC2` [Diquat dibromide] showed an NEL (rat [1]; [16]) of 4 mg/kg/day, an NOAEL (rat [1]; [16]) of 4 mg/kg/day and an LEL (rat [1]; [17]) of 12 mg/kg/day. The LOAEL (rat [1]; [17]) was 12 mg/kg/day, the NEL (rat [1]; [18]) was 0.8 mg/kg/day and the NOAEL (rat [1]; [18]) was 0.8 mg/kg/day. The LEL (rat [1]; [19]) was 4 mg/kg/day, the LOAEL (rat [1]; [19]) was 4 mg/kg/day and the LEL (mouse [2]) was 12 mg/kg/day. For the same compound, the LOAEL (mouse [2]) was 12 mg/kg/day, the NEL (mouse [2]) was 3.56 mg/kg/day and the NOAEL (mouse [2]) was 3.56 mg/kg/day. For the same compound, the LEL (rabbit [3]; [20]) was 1 mg/kg/day, the NEL (rabbit [3]; [20]) was less than 1 mg/kg/day and the LOAEL (rabbit [3]; [21]) was 10 mg/kg/day. For the same compound, the NOAEL (rabbit [3]; [21]) was 3 mg/kg/day, the LEL (rabbit [3]; [22]) was 3 mg/kg/day and the LOAEL (rabbit [3]; [22]) was 3 mg/kg/day. It also gave an NEL (rabbit [3]; [23]) of 1 mg/kg/day, an NOAEL (rabbit [3]; [23]) of 1 mg/kg/day and an LOAEL (mouse [4]; [24]) of 2 mg/kg/day. It also gave an NOAEL (mouse [4]; [24]) of 1 mg/kg/day, an LEL (mouse [4]; [25]) of 1 mg/kg/day and an NEL (mouse [4]; [25]) of less than 1 mg/kg/day. The LOAEL (mouse [4]; [26]) was 2 mg/kg/day, the NOAEL (mouse [4]; [26]) was 1 mg/kg/day and the LEL (mouse [4]; [27]) was 1 mg/kg/day. For the same compound, the NEL (mouse [4]; [27]) was less than 1 mg/kg/day, the LOAEL (rat [5]; systemic / pathology microscopic / eye / cataract) was 0.58 mg/kg/day and the NOAEL (rat [5]; systemic / pathology microscopic / eye / cataract + systemic / in life observation / body weight / body weight gain + systemic / pathology …) was 0.19 mg/kg/day. For the same compound, the LEL (rat [5]; [28]) was 0.24 mg/kg/day, the NEL (rat [5]; [28]) was less than 0.24 mg/kg/day and the LEL (rat [6]; [29]) was 40 mg/kg/day. The LOAEL (rat [6]; [29]) was 40 mg/kg/day, the NEL (rat [6]; [29]) was 12 mg/kg/day and the NOAEL (rat [6]; [29]) was 12 mg/kg/day. It also gave an LOAEL (rat [6]; [22]) of 12 mg/kg/day, an NOAEL (rat [6]; [23]) of 4 mg/kg/day and an LEL (rat [6]; [30]) of 4 mg/kg/day. It also gave an NEL (rat [6]; [30]) of less than 4 mg/kg/day, an LOAEL (dog [7]; systemic / pathology microscopic / eye / opacity + systemic / organ weight / epididymis / relative to body weight) of 2.5 mg/kg/day and an LEL (dog [7]; systemic / pathology microscopic / eye / opacity + systemic / organ weight / epididymis / relative to body weight + systemic / pathology …) of 2.5 mg/kg/day. For the same compound, the NEL (dog [7]; [31]) was 0.5 mg/kg/day and the NOAEL (dog [7]; [31]) was 0.5 mg/kg/day.

In the case of `C[Si](Cn1cncn1)(c1ccc(F)cc1)c1ccc(F)cc1` [Flusilazole], the LEL (rat [8]; [32]) is reported as 10 mg/kg/day, the LOAEL (rat [8]; [32]) is reported as 10 mg/kg/day and the NEL (rat [8]; [33]) is reported as 2 mg/kg/day. The NOAEL (rat [8]; [33]) was 2 mg/kg/day, the LEL (rat [8]; [23]) was 100 mg/kg/day and the LOAEL (rat [8]; [23]) was 100 mg/kg/day. The NEL (rat [8]; [23]) was 10 mg/kg/day, the NOAEL (rat [8]; [23]) was 10 mg/kg/day and the LEL (rabbit [9]; [34]) was 35 mg/kg/day. For the same compound, the LOAEL (rabbit [9]; [34]) was 35 mg/kg/day, the NEL (rabbit [9]; [34]) was 12 mg/kg/day and the NOAEL (rabbit [9]; [34]) was 12 mg/kg/day. It also gave an LEL (rabbit [9]; [35]) of 35 mg/kg/day, an LOAEL (rabbit [9]; [35]) of 35 mg/kg/day and an NEL (rabbit [9]; [35]) of 12 mg/kg/day. For the same compound, the NOAEL (rabbit [9]; [35]) was 12 mg/kg/day, the LOAEL (rat [10]; [36]) was 300 ppm and the NEL (rat [10]; [36]) was 50 ppm. For the same compound, the NOAEL (rat [10]; [36]) was 100 ppm, the LEL (rat [10]; group: developmental, developmental / developmental malformation / bone / extra ossification site + developmental / developmental malformation / bone / unossified) was 100 ppm and the LOAEL (rat [10]; group: maternal, reproductive / reproductive performance / resorptions / resorptions + systemic / in life observation / food consumption / food consumption) was 300 ppm. The LEL (rat [10]; [37]) was 300 ppm, the NEL (rat [10]; [37]) was 100 ppm and the NOAEL (rat [10]; [37]) was 100 ppm. For the same compound, the NOAEL (dog [11]; systemic / organ weight / liver / absolute + systemic / organ weight / liver / relative to body weight + systemic / clinical chemistry / …) was 0.9 mg/kg/day, the LOAEL (dog [11]; systemic / organ weight / liver / absolute + systemic / organ weight / liver / relative to body weight + systemic / pathology microscopic / …) was 4.3 mg/kg/day and the LEL (dog [11]; [38]) was 0.9 mg/kg/day. It also gave an NEL (dog [11]; [38]) of less than 0.9 mg/kg/day, an LOAEL (rat [12]; systemic / clinical chemistry / cholesterol / cholesterol + systemic / pathology microscopic / urinary bladder / hyperplasia) of 27 mg/kg/day and an NOAEL (rat [12]; systemic / clinical chemistry / cholesterol / cholesterol + systemic / pathology microscopic / urinary bladder / hyperplasia + systemic / …) of 9 mg/kg/day. It also gave an LEL (rat [12]; systemic / in life observation / body weight / body weight) of 11 mg/kg/day, an NEL (rat [12]; systemic / in life observation / body weight / body weight + systemic / clinical chemistry / cholesterol / cholesterol + systemic / organ …) of 2 mg/kg/day and an LEL (rat [13]; [39]) of 2.6 mg/kg/day. The LOAEL (rat [13]; [39]) was 2.6 mg/kg/day, the NEL (rat [13]; [40]) was 0.53 mg/kg/day and the NOAEL (rat [13]; [40]) was 0.53 mg/kg/day. It also gave an LEL (rat [14]; [41]) of 0.4 mg/kg/day, an LOAEL (rat [14]; [41]) of 0.4 mg/kg/day and an NEL (rat [14]; [41]) of less than 0.4 mg/kg/day. For the same compound, the NOAEL (rat [14]; [41]) was less than 0.4 mg/kg/day, the LEL (rat [14]; [42]) was 50 mg/kg/day and the LOAEL (rat [14]; [42]) was 50 mg/kg/day. The NEL (rat [14]; [43]) was 10 mg/kg/day, the NOAEL (rat [14]; [43]) was 10 mg/kg/day and the NEL (rat [15]; [44]) was 3.5 mg/kg/day. For the same compound, the NOAEL (rat [15]; [44]) was 3.5 mg/kg/day, the LEL (rat [15]; [45]) was 17.5 mg/kg/day and the LOAEL (rat [15]; [45]) was 17.5 mg/kg/day. It also gave an LEL (rat [15]; [46]) of 3.5 mg/kg/day, an LOAEL (rat [15]; [46]) of 3.5 mg/kg/day and an NEL (rat [15]; [47]) of 0.35 mg/kg/day. For the same compound, the NOAEL (rat [15]; [47]) was 0.35 mg/kg/day, the NEL (rat [15]; [48]) was 3.5 mg/kg/day and the NOAEL (rat [15]; [48]) was 3.5 mg/kg/day. It also gave an LEL (rat [15]; [49]) of 17.5 mg/kg/day and an LOAEL (rat [15]; [49]) of 17.5 mg/kg/day.
